Measurements as given in ChEMBL document CHEMBL5390258, “Recent Progress and Prospects of Small Molecules for NLRP3 Inflammasome Inhibition” (J Med Chem, 2023).

What was measured:
[1] = target: T1, NACHT, LRR and PYD domains-containing protein 3 (Homo sapiens, UniProt Q96P20); assay: Inhibition of NLRP3 in human Whole blood cell assessed as reduction in IL-1beta production incubated for overnight in presence of ATP by ELISA; format: tissue-based
[2] = target: T2, NACHT, LRR and PYD domains-containing protein 3 (Mus musculus, UniProt Q8R4B8); assay: Inhibition of NLRP3 in mouse BMDM assessed as reduction in IL-1beta production preincubated for 3 hrs followed by ATP measured after 45 mins by ELISA assay; format: cell-based
[3] = target: T1, NACHT, LRR and PYD domains-containing protein 3; assay: Inhibition of NLRP3 in human THP-1 cells assessed as reduction in IL-1beta production measured after 1 hrs by ELISA assay; format: cell-based
[4] = target: T1, NACHT, LRR and PYD domains-containing protein 3; assay: Inhibition of NLRP3 in human THP-1 cells assessed as reduction in IL-1beta production pre incubated for 3 hrs followed by nigericin addition measured after 1 hrs by resazurin staining based assay; format: cell-based
[5] = target: T1, NACHT, LRR and PYD domains-containing protein 3; assay: Inhibition of NLRP3 in human THP-1 cells assessed as reduction in IL-1beta production measured after 3 hrs; format: cell-based
[6] = target: T1, NACHT, LRR and PYD domains-containing protein 3; assay: Inhibition of NLRP3 in LPS induced human THP-1 cells assessed as reduction in IL-1beta production preincubated for 3 hrs followed by nigericin addition measured after 1 hrs by resazurin staining based assay; format: cell-based
[7] = target: T1, NACHT, LRR and PYD domains-containing protein 3; assay: Inhibition of NLRP3 in LPS induced human Whole blood cell assessed as reduction in IL-1beta production preincubated for 3 hrs followed by nigericin measured after 1 hrs by resazurin staining based assay; format: tissue-based
[8] = target: T1, NACHT, LRR and PYD domains-containing protein 3; assay: Inhibition of NLRP3 in human THP-1 cells assessed as reduction in IL-1beta production; format: cell-based
[9] = target: T2, NACHT, LRR and PYD domains-containing protein 3; assay: Inhibition of NLRP3 in mouse J774A.1 cells assessed as reduction of IL-1beta production; format: cell-based, J774.A1
[10] = target: T1, NACHT, LRR and PYD domains-containing protein 3; assay: Inhibition of NLRP3 in human PBMC cells assessed as reduction in IL-1beta production preincubated for 30 mins followed by LPS addition measured after 6 hrs; format: cell-based
[11] = target: T1, NACHT, LRR and PYD domains-containing protein 3; assay: Inhibition of NLR3 in human Whole blood cell assessed as reduction in IL-1beta production preincubated for 0.5 hrs followed by LPS treatement for […] and further addition of ATP measured after 45 mins by ELISA assay; format: tissue-based
[12] = test system: THP-1; assay: Induction of pyroptosis in human THP-1 cells; format: functional, cell-based
[13] = target: T1, NACHT, LRR and PYD domains-containing protein 3; assay: Inhibition of NLRP3 in human PBMC cells assessed as reduction in TNF alpha level preincubated for 30 mins followed by LPS addition measured after 6 hrs; format: cell-based
[14] = Inhibition of NLRP3 in PBMC cells (unknown origin) assessed as reduction in IL-1beta production measured after 2 hrs by ELISA assay; format: cell-based
[15] = test system: THP-1; assay: Antiinflammatory activity against PMA-differentiated human THP-1 cells assessed as reduction of IL-1beta production measured after 2 hrs; format: functional, cell-based; settings: THP-1, 2 h
[16] = target: T1, NACHT, LRR and PYD domains-containing protein 3; assay: Inhibition of NLRP3 in human PBMC cells assessed as reduction in Il-1beta production preincubated for 0.5 hrs followed by LPS treatment for […] and further addition of ATP measured after 45 mins; format: cell-based
[17] = target: T1, NACHT, LRR and PYD domains-containing protein 3; assay: Inhibition of NLRP3 in human PBMC cells assessed as reduction in TNFalpha level preincubated for 0.5 hrs followed by LPS treatment for […] and further addition of ATP measured after 45 mins; format: cell-based
[18] = target: T1, NACHT, LRR and PYD domains-containing protein 3; assay: Inhibition of NLRP3 in LPS induced human PBMC cells assessed as reduction in IL-1beta preincubated for 30 mins followed by ATP addition measured after 1 hrs HTRF assay; format: cell-based
[19] = Inhibition of NLRP3 in LPS induced PBMC (unknown origin) assessed as reduction in IL-1beta production preincubated 0.5 hrs followed by nigericin addition measured after 1 hrs by ELISA assay; format: cell-based
[20] = test system: THP-1; assay: Induction of pyroptosis in human THP-1 cells by AlphaLisa assay; format: functional, cell-based
[21] = target: T2, NACHT, LRR and PYD domains-containing protein 3; assay: Inhibition of NLRP3 in LPS induced mouse BMDM cells assessed as reduction in IL-1beta production measured after 30 mins by ELISA assay; format: cell-based
[22] = target: T1, NACHT, LRR and PYD domains-containing protein 3; assay: Inhibition of NLRP3 in human THP-1 cells assessed as reduction in caspase 1 level; format: cell-based
[23] = target: T1, NACHT, LRR and PYD domains-containing protein 3; assay: Inhibition of NLRP3 in human THP-1 cells assessed as reduction in IL-1beta production measured after 3 hrs by AlphaLISA assay; format: cell-based

T2 sequence (Q8R4B8 whole entry, the tested form may be a part): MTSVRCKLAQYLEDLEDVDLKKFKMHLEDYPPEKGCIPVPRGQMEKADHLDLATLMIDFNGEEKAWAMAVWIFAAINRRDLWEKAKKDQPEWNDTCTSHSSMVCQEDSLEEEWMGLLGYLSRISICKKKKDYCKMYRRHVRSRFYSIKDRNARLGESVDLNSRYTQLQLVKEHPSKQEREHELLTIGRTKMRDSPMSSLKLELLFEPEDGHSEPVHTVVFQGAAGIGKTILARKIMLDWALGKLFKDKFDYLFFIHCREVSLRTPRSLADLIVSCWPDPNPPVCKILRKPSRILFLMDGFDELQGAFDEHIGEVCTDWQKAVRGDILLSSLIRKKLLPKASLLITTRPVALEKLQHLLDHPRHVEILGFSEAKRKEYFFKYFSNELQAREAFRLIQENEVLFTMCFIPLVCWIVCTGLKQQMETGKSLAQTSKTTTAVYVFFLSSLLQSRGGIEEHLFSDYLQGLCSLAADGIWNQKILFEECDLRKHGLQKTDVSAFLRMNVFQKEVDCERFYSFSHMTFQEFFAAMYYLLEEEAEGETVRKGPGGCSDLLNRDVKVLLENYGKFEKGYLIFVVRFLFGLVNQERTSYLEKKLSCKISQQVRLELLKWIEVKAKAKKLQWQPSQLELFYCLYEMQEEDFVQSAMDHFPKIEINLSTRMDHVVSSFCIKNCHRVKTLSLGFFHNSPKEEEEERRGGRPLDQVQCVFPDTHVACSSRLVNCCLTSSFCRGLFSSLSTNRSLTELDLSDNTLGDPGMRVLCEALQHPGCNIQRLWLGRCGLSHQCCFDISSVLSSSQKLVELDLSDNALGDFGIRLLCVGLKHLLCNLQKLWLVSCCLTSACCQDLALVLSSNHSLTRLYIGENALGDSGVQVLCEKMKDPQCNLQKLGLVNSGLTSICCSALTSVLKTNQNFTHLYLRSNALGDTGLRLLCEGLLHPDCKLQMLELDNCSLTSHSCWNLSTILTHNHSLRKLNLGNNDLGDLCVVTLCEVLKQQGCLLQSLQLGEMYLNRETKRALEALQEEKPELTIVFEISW
T1 sequence (Q96P20 whole entry, the tested form may be a part): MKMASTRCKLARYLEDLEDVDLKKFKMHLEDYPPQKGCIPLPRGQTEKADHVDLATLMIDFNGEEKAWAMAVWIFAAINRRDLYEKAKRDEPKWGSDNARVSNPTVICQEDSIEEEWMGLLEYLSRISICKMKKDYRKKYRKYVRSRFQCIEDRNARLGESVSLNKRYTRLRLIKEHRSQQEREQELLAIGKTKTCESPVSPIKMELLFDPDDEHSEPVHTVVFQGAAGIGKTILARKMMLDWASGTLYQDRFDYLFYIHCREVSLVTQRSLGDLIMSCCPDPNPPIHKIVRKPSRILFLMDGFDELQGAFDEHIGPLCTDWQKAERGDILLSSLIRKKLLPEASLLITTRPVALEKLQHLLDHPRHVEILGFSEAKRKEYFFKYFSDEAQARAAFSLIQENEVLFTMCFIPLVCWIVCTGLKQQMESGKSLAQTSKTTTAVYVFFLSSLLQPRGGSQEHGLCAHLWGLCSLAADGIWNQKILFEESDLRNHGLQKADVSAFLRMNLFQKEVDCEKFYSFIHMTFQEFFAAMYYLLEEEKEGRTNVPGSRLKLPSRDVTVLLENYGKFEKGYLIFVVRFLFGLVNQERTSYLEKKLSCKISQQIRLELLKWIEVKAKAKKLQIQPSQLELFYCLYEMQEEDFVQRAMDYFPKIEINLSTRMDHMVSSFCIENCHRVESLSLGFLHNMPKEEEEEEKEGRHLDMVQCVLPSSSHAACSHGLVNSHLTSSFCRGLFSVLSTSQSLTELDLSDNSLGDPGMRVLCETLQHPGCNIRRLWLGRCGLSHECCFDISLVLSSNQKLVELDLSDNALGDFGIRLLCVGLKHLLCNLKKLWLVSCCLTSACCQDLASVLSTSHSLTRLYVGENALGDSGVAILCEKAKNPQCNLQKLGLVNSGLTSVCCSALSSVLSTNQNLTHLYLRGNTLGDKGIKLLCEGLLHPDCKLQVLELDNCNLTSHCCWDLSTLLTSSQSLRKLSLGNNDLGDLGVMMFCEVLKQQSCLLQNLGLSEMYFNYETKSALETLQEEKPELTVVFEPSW

O=C(Nc1c(C2CC2)ccc2c1CCC2)NS(=O)(=O)c1cc2c(o1)C1CCN(CC1)C2
IC50 [1]: < 1000 nM

C[C@@]1(O)CCCc2oc(S(=O)(=O)NC(=O)Nc3c4c(cc5c3CCC5)CCC4)cc21
IC50 [2]: < 100 nM

CC(C)c1nn(CC(=O)Nc2ncncc2F)c(=O)c2cc(C(F)(F)F)ccc12
IC50 [3]: > 50000 nM

CN1CCC(Oc2cc(-c3ccc4c(c3NC(=O)NS(=O)(=O)C3CC3)CCC4)ccn2)CC1
IC50 [4]: ≤ 250 nM

CS(=O)(=O)NC(=O)Nc1c(-c2ccnc(OC3CCN(Cc4ccccc4)CC3)c2)ccc2c1CCC2
IC50 [5]: ≤ 250 nM

O=S1(=O)c2nnc([nH]2)Nc2c(ccc3c2CCC3)-c2ccnc(c2)OCCCN2CCC3(CC1C3)C2
IC50 [6]: ≤ 100 nM

COc1cc(-c2ccc3c(c2NC(=O)NS(=O)(=O)c2cn(C(C)C)c(=O)cn2)CCC3)ccn1
IC50 [7]: < 1000 nM

Cc1cc2c(c(NC(=O)N[S+](=N)([O-])c3ccccc3)c1-c1ccnc(OC3CCN(C)CC3)c1)CCC2 (stereo not given)
IC50 [8]: < 0.25 µM

O=C(/C=C/S(=O)(=O)c1ccccc1Cl)NCCc1ccccc1
IC50 [9]: 910 nM

CC(C)c1cc(F)cc(C(C)C)c1NC(=O)N=[S+](N)([O-])c1ccc2ccccc2c1 (stereo not given)
IC50 [8]: > 30 µM

COC(=O)C12CC(NC(=O)Cn3nc(C(C)C)c(OCC(C)C)cc3=O)(C1)C2
EC50 [10]: 0.01 µM

O=C(Nc1c2c(cc3c1CCC3)CCC2)NS(=O)(=O)c1cc2c(o1)C1CCN(CC1)C2
IC50 [11]: < 1000 nM

CN1CCC[C@@H](Nc2nnc(-c3sccc3O)c3c2ncn3C)C1
EC50 [12]: > 1000 nM

CCNc1cc2c(=O)n(CC(=O)Nc3ccc4nncn4c3)nc(C(C)C)n2n1
IC50 [10]: 24 nM | IC50 [13]: 7.04 µM

Cn1cc(N(C[C@@H]2CCCO2)CS(=O)(=O)NC(=O)Nc2c3c(cc4c2CC4)CCC3)cn1
IC50 [14]: < 100 nM

Cc1cc2c(c(NC(=O)NS(=O)(=O)c3cc(C(C)(C)O)co3)c1-c1ccnc(OC3CCN(C)CC3)c1)CCC2
IC50 [8]: ≤ 0.25 µM

CC(C)c1nn(CC(=O)Nc2ccc3nncn3c2)c(=O)cc1Oc1ccccc1
EC50 [10]: > 15 µM

CC(C)c1cc(F)cc(C(C)C)c1NC(=O)N=[S+](N)([O-])c1ccccc1-c1ccccc1 (stereo not given)
IC50 [8]: > 30 µM

O=C(Nc1c2c(cc3c1CC3)CCC2)NS(=O)(=O)c1cnn2c1OCCC2
IC50 [15]: 200 nM

CC(C)c1nn(CC(=O)Nc2ccncn2)c(=O)c2cccn12
IC50 [16]: > 10 µM | IC50 [17]: > 10 µM

CC(C)OC(=O)c1nc(Nc2c3c(cc4c2CCC4)CCC3)cs1
IC50 [18]: < 1000 nM

CCOC(=O)C(Cn1cc(F)cn1)OC(=O)Nc1c2c(cc3c1CCC3)CCC2 (stereo not given)
IC50 [19]: < 10 nM

CC(C)c1nn(C2(C(=O)Nc3ncccn3)CC2)c(=O)cc1-c1cc(F)cc(F)c1
IC50 [3]: 1140 nM

CCN1CCC[C@@H](Nc2nc3nc(-c4c(C)cc(Cl)cc4O)ccc3o2)C1
IC50 [20]: 0.4 nM

CC(C)c1nn(CC(=O)Nc2ccc3nncn3n2)c(=O)cc1Nc1ccccc1
EC50 [10]: > 15 µM

CN1CCC[C@@H](Nc2nnc(-c3ccc(C(F)(F)F)cc3O)c3c2ncn3C)C1
EC50 [12]: < 20 nM

Cc1cc(Cl)cc(O)c1-c1ccc2oc(N[C@@H]3CCCN4CCC[C@@H]34)nc2n1
IC50 [20]: 27.4 nM

CCC(CC)CN1C(=O)/C(=C/c2ccccc2S(C)(=O)=O)SC1=S
IC50 [21]: 1400 nM

C=CCN1C(=O)/C(=C2/C(=O)Nc3ccccc32)SC1=S
IC50 [22]: 500 nM

CC(C)c1cc(F)cc2c1CC(=O)NS(=O)(=O)c1ccn(n1)C(C)(C)COc1cc-2ccn1
IC50 [23]: ≤ 100 nM

CCc1oc(C(C)C)cc1NC(=O)NS(=O)(=O)C(c1cnn(C)c1)C1CCCN(C)C1 (stereo not given)
IC50 [5]: < 100 nM

CC(C)c1nn(CC(=O)N[C@H]2C[C@](C)(O)C2)c(=O)c2ccc(Br)cc12
IC50 [10]: < 25 nM | IC50 [13]: > 10 µM
